Test results from ChEMBL document CHEMBL3272273, “Synthesis and pharmacological activity and some derivatives of 1-phenyl-1,2,3,4-tetrahydro-5H-1,4-benzodiazepin-5-one” (J Med Chem, 1978).

How the values were obtained:
Ileum [1] = assay: Antiacetylcholine activity in guinea pig ileum assessed as dose required to decrease 50 to 100% of acetylcholine-induced effect treated 5 mins before acetylcholine addition; type: functional, Cavia porcellus
Mus musculus [2] = assay: Anticonvulsant activity in ip dosed albino mouse assessed as dose causing >25% increase in maximal electroshock-induced maximal extensor seizure relative to untreated control; type: functional
Mus musculus [3] = assay: Toxicity in ip dosed albino mouse assessed as barbiturate-induced sleep by measuring loss of righting reflex administered 45 mins before barbiturate challenge relative to control; type: organism-based; conditions: in vivo, 0.75 h
Mus musculus [4] = assay: Toxicity in ip dosed mouse assessed as sedative action; type: organism-based; conditions: in vivo
Mus musculus [5] = assay: Toxicity in albino mouse assessed as translatory movements at 10 mg/kg, ip relative to control; type: organism-based; design: dose 10 mg/kg, route intraperitoneal; conditions: in vivo
Ileum [6] = assay: Antihistamine activity in guinea pig ileum assessed as dose required to decrease 50 to 100% of histamine induced effect treated 5 mins before histamine addition; type: functional, Cavia porcellus
Mus musculus [7] = assay: Neurotoxicity in albino mouse at 10 mg/kg, po up to 5 mins by rotorod test relative to control; type: toxicity, organism-based; design: dose 10 mg/kg, route oral; conditions: in vivo
[8] = Antitrypatamine activity in isolated Wistar rat caudal artery assessed as dose required to decrease 20 to 50% of […]-induced effect per 6 mL/min after 15 mins; type: functional
Mus musculus [9] = assay: Toxicity in ip dosed albino mouse assessed as barbiturate-induced sleep by measuring loss of righting reflex relative to control; type: organism-based; conditions: in vivo
[10] = Antinoradrenaline activity in isolated Wistar rat caudal artery assessed as dose required to decrease 20 to 50% of noradrenaline-induced effect per 6 mL/min after 15 mins; type: functional
Mus musculus [11] = assay: Toxicity in albino mouse assessed as body-temperature variation at 10 mg/kg, ip measured 20 mins after dl-amphetamine sulfate injection dosed 30 mins before dl-amphetamine sulfate injection; type: organism-based; design: dose 10 mg/kg, route intraperitoneal; conditions: in vivo
[12] = Acute toxicity in ip dosed albino mouse measured within 24 hrs; type: organism-based; conditions: in vivo
Mus musculus [13] = assay: Toxicity in ip dosed albino mouse assessed as dose required to increase 25% of dl-amphetamine sulfate-induced death; type: organism-based; conditions: in vivo
Mus musculus [14] = assay: Neurotoxicity in albino mouse at 5 mg/kg, po up to 5 mins by rotorod test relative to control; type: toxicity, organism-based; design: dose 5 mg/kg, route oral; conditions: in vivo
Mus musculus [15] = assay: Toxicity in albino mouse assessed as translatory movements at 5 mg/kg, ip relative to control; type: organism-based; design: dose 5 mg/kg, route intraperitoneal; conditions: in vivo
Mus musculus [16] = assay: Toxicity in albino mouse assessed as body-temperature variation at 5 mg/kg, ip measured 20 mins after dl-amphetamine sulfate injection dosed 30 mins before dl-amphetamine sulfate injection; type: organism-based; design: dose 5 mg/kg, route intraperitoneal; conditions: in vivo
Mus musculus [17] = assay: Anticonvulsant activity in ip dosed albino mouse assessed as dose causing total prevention of maximal electroshock-induced maximal extensor seizure; type: functional

SMILES	Activity (Ileum [1])	Activity (Mus musculus [2])	Activity (Mus musculus [3])	Activity (Mus musculus [4])	Activity (Mus musculus [5])	Activity (Ileum [6])	Activity (Mus musculus [7])	Activity [8]	Activity (Mus musculus [9])	Activity [10]	temperature change (Mus musculus [11])	LD50 at 24 h [12]	Activity (Mus musculus [13])	Activity (Mus musculus [14])	Activity (Mus musculus [15])	temperature change (Mus musculus [16])	Activity (Mus musculus [17])
CN(C)CCN1CCN(c2ccccc2)c2ccccc2C1=O	100 µg/mL	50 mg/kg	15%	Non-toxic	-30%	50 µg/mL	-6%	50 µg/min	4%	200 µg/min	0.6 °C	100 mg/kg	10 mg/kg				
CN(C)CCCN1CCN(c2ccccc2)c2ccccc2C1=O	100 µg/mL	10 mg/kg	10%	Non-toxic	-15%	100 µg/mL	-12%	50 µg/min	35%	160 µg/min		116 mg/kg					
CC(CN(C)C)N1CCN(c2ccccc2)c2ccccc2C1=O (configuration not stated)	50 µg/mL	12 mg/kg	12.5%	Non-toxic	4%	50 µg/mL	-25%	50 µg/min	20%	160 µg/min		130 mg/kg					
CCN(CC)CCN1CCN(c2ccccc2)c2ccccc2C1=O	100 µg/mL	5 mg/kg	10%	Non-toxic	1%	100 µg/mL	11%	50 µg/min	40%	80 µg/min		75 mg/kg					
O=C1c2ccccc2N(c2ccccc2)CCN1CCN1CCCC1	100 µg/mL		20%	Non-toxic	-10%	50 µg/mL	-32%	50 µg/min	60%	15 µg/min	-0.2 °C	80 mg/kg					
O=C1c2ccccc2N(c2ccccc2)CCN1CCN1CCCCC1	100 µg/mL	25 mg/kg	20%	Non-toxic	-11%	50 µg/mL	-27%	25 µg/min	45%	25 µg/min	1.4 °C	75 mg/kg	10 mg/kg				
C[N+](C)(C)CCN1CCN(c2ccccc2)c2ccccc2C1=O.[I-]	50 µg/mL	15 mg/kg	15%	Non-toxic		50 µg/mL		50 µg/min	-40%	50 µg/min		35 mg/kg	5 mg/kg	-21%	20%	-0.3 °C	
C[N+](C)(C)CCCN1CCN(c2ccccc2)c2ccccc2C1=O.[I-]	50 µg/mL	10 mg/kg	10%	Non-toxic		50 µg/mL		50 µg/min	-25%	100 µg/min		50 mg/kg	5 mg/kg	70%	-5%	1.2 °C	
CC(C[N+](C)(C)C)N1CCN(c2ccccc2)c2ccccc2C1=O.[I-] (configuration not stated)	200 µg/mL	5 mg/kg	5%	Non-toxic		50 µg/mL		15 µg/min	-15%	50 µg/min		15 mg/kg		-7%	1%	0.3 °C	
CC[N+](C)(CC)CCN1CCN(c2ccccc2)c2ccccc2C1=O.[I-]	50 µg/mL	5 mg/kg	5%	Non-toxic		50 µg/mL		15 µg/min	-40%	50 µg/min		15 mg/kg	3 mg/kg	20%	-3%	1.4 °C	
C[N+]1(CCN2CCN(c3ccccc3)c3ccccc3C2=O)CCCC1.[I-]	100 µg/mL	3 mg/kg	5%	Non-toxic		50 µg/mL	11%	50 µg/min	30%	5 µg/min		10 mg/kg	3 mg/kg		-8%	1.6 °C	
C[N+]1(CCN2CCN(c3ccccc3)c3ccccc3C2=O)CCCCC1.[I-]	50 µg/mL		3%	Non-toxic		200 µg/mL	8%	50 µg/min	20%	25 µg/min		15 mg/kg			-20%	0.9 °C	
O=C1NCCN(c2ccc([N+](=O)[O-])cc2)c2ccc([N+](=O)[O-])cc21	200 µg/mL		50%	Non-toxic	-21%	200 µg/mL	-45%		40%		1 °C	> 400 mg/kg					
Nc1ccc2c(c1)C(=O)NCCN2c1ccc([N+](=O)[O-])cc1	50 µg/mL		50%	Non-toxic	-15%	200 µg/mL	39%		70%		1.2 °C	> 400 mg/kg					
Nc1ccc(N2CCNC(=O)c3ccccc32)cc1	200 µg/mL		50%	Non-toxic	2%	200 µg/mL	-20%		90%		1.4 °C	> 400 mg/kg					
CN1C(=O)CN=C(c2ccccc2)c2cc(Cl)ccc21 [DIAZEPAM]				Non-toxic	-50%	4 µg/mL	-40%										50 mg/kg
